Measurements reported in PubChem BioAssay (NCI).
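These data come from cells grown in 96-well plates and exposed to compound for 48 hours at five concentrations. GI50: concentration for 50% inhibition of growth. TGI marks complete inhibition of growth.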

Tests used:
Test in all cases: growth of human tumour cells (NCI), 48 h
[1] = system: SK-MEL-28 melanoma
[2] = system: CCRF-CEM leukemia
[3] = system: A549 NSCLC
[4] = system: SF-268 CNS
[5] = system: K-562 leukemia
[6] = system: HCC-2998 colon
[7] = system: NCI/ADR-RES ovarian
[8] = system: RPMI-8226 leukemia
[9] = system: TK-10 renal
[10] = system: SK-MEL-5 melanoma

Compound | GI50 [1] | TGI [1] | GI50 [2] | TGI [2] | GI50 [3] | TGI [3] | GI50 [4] | TGI [4] | GI50 [5] | TGI [5] | GI50 [6] | TGI [6] | GI50 [7] | TGI [7] | GI50 [8] | TGI [8] | GI50 [9] | TGI [9] | GI50 [10] | TGI [10]
Brc1ccc(Br)nn1 | 1.42 µM | 2.76 µM | 0.404 µM | 3.65 µM | 12.5 µM | 32.4 µM | 1.9 µM | 5.04 µM | 2.17 µM | 10.3 µM | 1.98 µM | 4.94 µM | 2 µM | 5.78 µM | 1.83 µM | 6.44 µM | 2.56 µM | 6.37 µM | 1.49 µM | 3.85 µM
O=C(NO)c1cnc(N2CCN(S(=O)(=O)c3ccc4ccccc4c3)CC2)nc1 | 0.062 µM | 1.15 µM | 0.0379 µM | > 64.7 µM | 0.0459 µM | 0.37 µM | 0.169 µM | 1.3 µM | 0.0363 µM | > 40.9 µM | 0.11 µM | 0.32 µM | 0.0324 µM |  | 0.0208 µM | 17.6 µM | 0.0432 µM | 0.454 µM | 0.0396 µM | 0.15 µM
OC(c1ccccc1)c1c(-c2ccccc2)oc(-c2ccccc2)c1C(O)c1ccccc1 (centres undefined) |  | 27.9 µM |  | 17.1 µM |  | 20.5 µM |  | 25.5 µM |  | 13.9 µM |  | 33 µM |  | 24.9 µM |  | 14 µM |  | 29 µM |  | 23.6 µM
CCN1C(=O)N(CC)C2C1NN=c1s/c(=C\c3ccccc3)c(=O)n12 (centres undefined) | > 49.1 µM | > 100 µM | 0.232 µM | > 100 µM | 0.305 µM | > 100 µM | 0.771 µM | > 100 µM | 0.0505 µM | > 100 µM | 0.282 µM | > 100 µM | 0.0799 µM | > 100 µM | 0.389 µM | > 72.4 µM | 32.8 µM | > 100 µM | 0.147 µM | 6.11 µM
CN1CCN(c2ccc3nc4c(nc3c2C(F)(F)F)C(=O)c2ncccc2C4=O)CC1 | 1.99 µM | 4.18 µM | 2.44 µM | 7.32 µM | 1.21 µM | 3.92 µM | 1.66 µM | 4.13 µM | 1.43 µM | 7.75 µM | 1.21 µM | 2.63 µM | 2.33 µM | 6.94 µM | 2.37 µM | 7.59 µM | 2.21 µM | 5.3 µM | 1.43 µM | 2.76 µM
C[C@@H]1CN2[C@H]3[C@@H]1CC[C@]31CCC(=O)O[C@]1(C)[C@@H]1CC[C@H]3CCC=C3[C@@H]12 | > 70 µM | > 70 µM | > 70 µM | > 70 µM | > 70 µM | > 70 µM | > 70 µM | > 70 µM | > 70 µM | > 70 µM | > 70 µM | > 70 µM | > 70 µM | > 70 µM | > 70 µM | > 70 µM | > 70 µM | > 70 µM | > 70 µM | > 70 µM
COc1ccc(-n2sc(=O)n(Cc3ccc(COC(=O)C(C)c4ccc(CC(C)C)cc4)cc3)c2=O)cc1 (centres undefined) | 3.02 µM | 9.53 µM | 0.567 µM | 3.74 µM | 9.56 µM | 25.9 µM | 5.82 µM | 12.2 µM | 1.43 µM | 10.4 µM | 7.99 µM | 17.2 µM | 7.5 µM | 20 µM | 1.51 µM | 4.11 µM | 0.997 µM | 2.17 µM | 7.41 µM | 14.5 µM
CCCCCCC1N=C(N)N=C(N)N1c1ccc(Cl)cc1 (centres undefined) | 8.66 µM | 21.8 µM | 4.67 µM | 81.3 µM | 4.83 µM | > 100 µM | 3.78 µM | 21.7 µM | 5.55 µM | > 100 µM | 8.95 µM | 22 µM | > 100 µM | > 100 µM | 8.62 µM | 30 µM | 31.4 µM | > 100 µM | 3.47 µM | 14.7 µM
CCS/C(Nc1ccccc1)=C(\C#N)C(=O)N/N=C/c1ccc(Cl)cc1Cl | 23.6 µM | > 100 µM | 3.07 µM | > 100 µM | 4.63 µM | > 100 µM | 6.58 µM | > 100 µM | 0.855 µM | > 100 µM | 5.47 µM | > 100 µM | 3.16 µM | > 100 µM | 3.68 µM | > 100 µM | 10.2 µM | > 100 µM | 2.28 µM | 8.53 µM
CCc1ccccc1-n1c(N)c(C#N)c(-c2ccc(OC)c(OC)c2)c(C#N)c1=O | 20.1 µM | 41.8 µM | > 100 µM | > 100 µM | 34.4 µM | > 100 µM | 16.2 µM | 31.6 µM | > 100 µM | > 100 µM | 31.9 µM | > 100 µM | 31.9 µM | > 100 µM | 43.1 µM | > 100 µM | 18 µM | 39.4 µM | 32.7 µM | > 100 µM
CSc1ccc(C2=NN(C(=O)c3ccc(N)cc3)C(c3ccc(F)cc3)C2)cc1 (centres undefined) | 18.4 µM | 34.7 µM | 0.314 µM | 1.72 µM | 13.7 µM | 32.7 µM | 3.09 µM | 12.6 µM | 3.69 µM | 11.2 µM | 8.79 µM | 21.8 µM | 16.1 µM | 38.5 µM | 1.88 µM | 4.41 µM | 7.5 µM | 26.1 µM | 5.66 µM | 18.8 µM
CC1(C)CC2CC(C)(CN2c2ncnc3ccc(Br)cc23)C1 (centres undefined) | 13.9 µM | 28 µM | 6.61 µM | 39.8 µM | 2.82 µM | 9.11 µM | 17.9 µM | 37.9 µM | 1.62 µM | 6.79 µM | 11.7 µM | 23.9 µM | 12.8 µM | 25.4 µM | 2.58 µM | 13.5 µM | 11.4 µM | 23.6 µM | 8.88 µM | 21.6 µM
COc1cc(C2C(C#N)=C(N)Oc3cc4c(cc32)OCO4)cc2c1OCO2 (centres undefined) | 1.57 µM | > 100 µM | 0.318 µM | > 100 µM | 0.384 µM | > 100 µM | 0.963 µM | 97.3 µM | 0.068 µM | > 100 µM | 0.352 µM | 6.11 µM | 0.103 µM | 0.553 µM | 0.406 µM | > 71 µM | 2.36 µM | > 79.8 µM | 0.101 µM | 14.3 µM
N#Cc1c(Oc2ccc(F)c(NC(=O)Cc3cccc(C(F)(F)F)c3)c2)ccc2nc(NC(=O)C3CC3)sc12 | 0.0292 µM | > 100 µM | 0.622 µM | > 100 µM | 0.703 µM | > 100 µM | 1.35 µM | > 100 µM | 0.385 µM | > 100 µM | 0.581 µM | > 100 µM | 1.28 µM | > 100 µM | 0.72 µM | > 100 µM | 1.86 µM | > 100 µM | 0.206 µM | 8.6 µM
